Test results taken from patent publication US20230157952A1, “METHOD FOR IMPROVING THE STABILITY OF A PHARMACEUTICAL COMPOSITION COMPRISING A HIGH PENETRATION DRUG, AND THE PHARMACEUTICAL COMPOSITION OBTAINED THEREFROM” (Techfields Inc., priority 2020, published 2023).

Tests used:
[1] = Effect of pH value on the stability of the solution (purity); type: physicochemical; conditions: 25° C.
[2] = Effect of temperature (and pH) on the stability of the solution (purity); type: physicochemical; conditions: 7% solution in water
[3] = Effect of concentration on the stability of the solution (purity over time); conditions: in water at 25° C.
[4] = day 0, pH 1.0, 7% in 25% ethanol
[5] = day 0, pH 2.0, 7% in 25% ethanol
[6] = day 0, pH 3.0, 7% in 25% ethanol
[7] = day 0, pH 3.7, 7% in 25% ethanol
[8] = day 0, pH 4.0, 7% in 25% ethanol
[9] = day 0, pH 4.3, 7% in 25% ethanol
[10] = day 0, pH 4.6, 7% in 25% ethanol
[11] = day 0, pH 5.0, 7% in 25% ethanol
[12] = day 0, pH 6.0, 7% in 25% ethanol
[13] = day 0, pH 7.0, 7% in 25% ethanol
[14] = day 0, pH 8.0, 7% in 25% ethanol
[15] = day 28, pH 1.0, 7% in 25% ethanol
[16] = day 28, pH 2.0, 7% in 25% ethanol
[17] = day 28, pH 3.0, 7% in 25% ethanol
[18] = day 28, pH 3.7, 7% in 25% ethanol
[19] = day 28, pH 4.0, 7% in 25% ethanol
[20] = day 28, pH 4.3, 7% in 25% ethanol
[21] = day 28, pH 4.6, 7% in 25% ethanol
[22] = day 28, pH 5.0, 7% in 25% ethanol
[23] = day 28, pH 6.0, 7% in 25% ethanol
[24] = day 28, pH 7.0, 7% in 25% ethanol
[25] = day 28, pH 8.0, 7% in 25% ethanol

CC(C)Cc1ccc([C@@H](C)C(=O)OCCC2CCNCC2)cc1.Cl (racemic) [C-8, 4-piperidineethyl (R,S)-2-(p-isobutylphenyl)propionate•HCl salt]
Purity(%) from day 0-28 [1, 4]: 97.6 ± 0.4% | Purity(%) from day 0-28 [1, 5]: 98.0 ± 0.3% | Purity(%) from day 0-28 [1, 6]: 98.1 ± 0.2% | Purity(%) from day 0-28 [1, 7]: 98.3 ± 0.3% | Purity(%) from day 0-28 [1, 8]: 98.4 ± 0.3% | Purity(%) from day 0-28 [1, 9]: 98.4 ± 0.2% | Purity(%) from day 0-28 [1, 10]: 98.3 ± 0.2% | Purity(%) from day 0-28 [1, 11]: 98.3 ± 0.4% | Purity(%) from day 0-28 [1, 12]: 98.2 ± 0.3% | Purity(%) from day 0-28 [1, 13]: 97.9 ± 0.3% | Purity(%) from day 0-28 [1, 14]: 97.6 ± 0.5% | Purity(%) from day 0-28 [1, 15]: 68.4 ± 0.4% | Purity(%) from day 0-28 [1, 16]: 87.3 ± 0.3% | Purity(%) from day 0-28 [1, 17]: 87.3 ± 0.3% | Purity(%) from day 0-28 [1, 18]: 95.0 ± 0.2% | Purity(%) from day 0-28 [1, 19]: 96.1 ± 0.3% | Purity(%) from day 0-28 [1, 20]: 96.3 ± 0.3% | Purity(%) from day 0-28 [1, 21]: 96.3 ± 0.2% | Purity(%) from day 0-28 [1, 22]: 89.7 ± 0.3% | Purity(%) from day 0-28 [1, 23]: 87.3 ± 0.3% | Purity(%) from day 0-28 [1, 24]: 48.3 ± 0.4% | Purity(%) from day 0-28 [1, 25]: 34.2 ± 0.3%

CC(C)Cc1ccc([C@@H](C)C(=O)OCCN2CCCC2)cc1.Cl (racemic) [C-9, 1-pyrrolidineethyl (R,S)-2-(p-isobutylphenyl)propionate•HCl salt]
Purity(%) from day 0-28 [1, 4]: 98.0 ± 0.3% | Purity(%) from day 0-28 [1, 5]: 98.2 ± 0.4% | Purity(%) from day 0-28 [1, 6]: 98.5 ± 0.3% | Purity(%) from day 0-28 [1, 7]: 98.6 ± 0.4% | Purity(%) from day 0-28 [1, 8]: 98.6 ± 0.3% | Purity(%) from day 0-28 [1, 9]: 98.7 ± 0.2% | Purity(%) from day 0-28 [1, 10]: 98.6 ± 0.3% | Purity(%) from day 0-28 [1, 11]: 98.5 ± 0.4% | Purity(%) from day 0-28 [1, 12]: 98.4 ± 0.5% | Purity(%) from day 0-28 [1, 13]: 98.1 ± 0.5% | Purity(%) from day 0-28 [1, 14]: 97.9 ± 0.5% | Purity(%) from day 0-28 [1, 15]: 68.3 ± 0.2% | Purity(%) from day 0-28 [1, 16]: 87.7 ± 0.3% | Purity(%) from day 0-28 [1, 17]: 87.7 ± 0.2% | Purity(%) from day 0-28 [1, 18]: 95.5 ± 0.3% | Purity(%) from day 0-28 [1, 19]: 96.3 ± 0.3% | Purity(%) from day 0-28 [1, 20]: 96.4 ± 0.2% | Purity(%) from day 0-28 [1, 21]: 96.4 ± 0.3% | Purity(%) from day 0-28 [1, 22]: 88.6 ± 0.3% | Purity(%) from day 0-28 [1, 23]: 89.0 ± 0.4% | Purity(%) from day 0-28 [1, 24]: 48.1 ± 0.3% | Purity(%) from day 0-28 [1, 25]: 34.4 ± 0.4%

CC(C)Cc1ccc(C(C)C(=O)OCCN2CCCCC2)cc1.Cl (racemic) [C-10, 1-piperidineethyl (R,S)-2-(p-isobutylphenyl)propionate•HCl salt]
Purity(%) from day 0-28 [1, 4]: 97.6 ± 0.3% | Purity(%) from day 0-28 [1, 5]: 97.9 ± 0.4% | Purity(%) from day 0-28 [1, 6]: 98.0 ± 0.3% | Purity(%) from day 0-28 [1, 7]: 98.2 ± 0.3% | Purity(%) from day 0-28 [1, 8]: 98.2 ± 0.2% | Purity(%) from day 0-28 [1, 9]: 98.3 ± 0.3% | Purity(%) from day 0-28 [1, 10]: 98.2 ± 0.4% | Purity(%) from day 0-28 [1, 11]: 98.2 ± 0.3% | Purity(%) from day 0-28 [1, 12]: 98.1 ± 0.3% | Purity(%) from day 0-28 [1, 13]: 97.8 ± 0.3% | Purity(%) from day 0-28 [1, 14]: 97.5 ± 0.5% | Purity(%) from day 0-28 [1, 15]: 68.1 ± 0.3% | Purity(%) from day 0-28 [1, 16]: 87.0 ± 0.3% | Purity(%) from day 0-28 [1, 17]: 87.0 ± 0.2% | Purity(%) from day 0-28 [1, 18]: 95.1 ± 0.3% | Purity(%) from day 0-28 [1, 19]: 95.8 ± 0.3% | Purity(%) from day 0-28 [1, 20]: 95.9 ± 0.2% | Purity(%) from day 0-28 [1, 21]: 95.8 ± 0.3% | Purity(%) from day 0-28 [1, 22]: 88.5 ± 0.4% | Purity(%) from day 0-28 [1, 23]: 87.9 ± 0.3% | Purity(%) from day 0-28 [1, 24]: 47.8 ± 0.3% | Purity(%) from day 0-28 [1, 25]: 34.1 ± 0.4%

CCN(CC)CCOC(=O)CC1=C(C)C(=Cc2ccc([S+](C)[O-])cc2)c2ccc(F)cc21.Cl (centres unmarked) [2-(diethylamino)ethyl 5-fluoro-2-methyl-1-[[4-(methylsulfinyl)phenyl]methylene]-1H-indene-3-acetate•HCl]
Stability of the solution at a temperature higher than 40° C. and a pH lower than 3 or greater than 6 [2]: not stable | Purity at Day 3 ([3]; 0.01 wt %): 82.3% | Purity at Day 7 ([3]; 0.01 wt %): 71.2% | Purity at Day 14 ([3]; 0.01 wt %): 59.4% | Purity at Day 21 ([3]; 0.01 wt %): 50.4% | Purity at Day 28 ([3]; 0.01 wt %): 43.7% | Purity at hr 0 ([3]; 0.01 wt %): 97.1% | Purity at Day 3 ([3]; 0.1 wt %): 95.7% | Purity at Day 7 ([3]; 0.1 wt %): 93.6% | Purity at Day 14 ([3]; 0.1 wt %): 89.8% | Purity at Day 21 ([3]; 0.1 wt %): 84.4% | Purity at Day 28 ([3]; 0.1 wt %): 78.9% | Purity at hr 0 ([3]; 0.1 wt %): 97.2% | Purity at Day 3 ([3]; 1 wt %): 96.2% | Purity at Day 7 ([3]; 1 wt %): 95.2% | Purity at Day 14 ([3]; 1 wt %): 93.1% | Purity at Day 21 ([3]; 1 wt %): 91.5% | Purity at Day 28 ([3]; 1 wt %): 90.1% | Purity at hr 0 ([3]; 1 wt %): 97.3% | Purity at Day 3 ([3]; 3 wt %): 96.7% | Purity at Day 7 ([3]; 3 wt %): 96.3% | Purity at Day 14 ([3]; 3 wt %): 95.0% | Purity at Day 21 ([3]; 3 wt %): 94.1% | Purity at Day 28 ([3]; 3 wt %): 93.1% | Purity at hr 0 ([3]; 3 wt %): 97.3% | Purity at Day 3 ([3]; 5 wt %): 97.3% | Purity at Day 7 ([3]; 5 wt %): 97.1% | Purity at Day 14 ([3]; 5 wt %): 96.7% | Purity at Day 21 ([3]; 5 wt %): 96.2% | Purity at Day 28 ([3]; 5 wt %): 95.4% | Purity at hr 0 ([3]; 5 wt %): 97.5% | Purity at Day 3 ([3]; 7 wt %): 97.4% | Purity at Day 7 ([3]; 7 wt %): 97.3% | Purity at Day 14 ([3]; 7 wt %): 97.1% | Purity at Day 21 ([3]; 7 wt %): 96.6% | Purity at Day 28 ([3]; 7 wt %): 96.4% | Purity at hr 0 ([3]; 7 wt %): 97.6% | Purity at Day 3 ([3]; 8 wt %): 97.4% | Purity at Day 7 ([3]; 8 wt %): 97.2% | Purity at Day 14 ([3]; 8 wt %): 96.9% | Purity at Day 21 ([3]; 8 wt %): 96.8% | Purity at Day 28 ([3]; 8 wt %): 96.5% | Purity at hr 0 ([3]; 8 wt %): 97.5% | Purity at Day 3 ([3]; 10 wt %): 97.5% | Purity at Day 7 ([3]; 10 wt %): 97.3% | Purity at Day 14 ([3]; 10 wt %): 97.0% | Purity at Day 21 ([3]; 10 wt %): 97.0% | Purity at Day 28 ([3]; 10 wt %): 96.7% | Purity at hr 0 ([3]; 10 wt %): 97.5% | Purity at Day 3 ([3]; 15 wt %): 97.4% | Purity at Day 7 ([3]; 15 wt %): 97.4% | Purity at Day 14 ([3]; 15 wt %): 97.1% | Purity at Day 21 ([3]; 15 wt %): 97.1% | Purity at Day 28 ([3]; 15 wt %): 96.8% | Purity at hr 0 ([3]; 15 wt %): 97.6% | Purity at Day 3 ([3]; 20 wt %): 97.4% | Purity at Day 7 ([3]; 20 wt %): 97.6% | Purity at Day 14 ([3]; 20 wt %): 97.2% | Purity at Day 21 ([3]; 20 wt %): 97.1% | Purity at Day 28 ([3]; 20 wt %): 96.8% | Purity at hr 0 ([3]; 20 wt %): 97.6% | Purity at Day 3 ([3]; 30 wt %): 97.5% | Purity at Day 7 ([3]; 30 wt %): 97.5% | Purity at Day 14 ([3]; 30 wt %): 97.3% | Purity at Day 21 ([3]; 30 wt %): 97.0% | Purity at Day 28 ([3]; 30 wt %): 96.7% | Purity at hr 0 ([3]; 30 wt %): 97.7% | Purity at Day 3 ([3]; 50 wt %): 97.5% | Purity at Day 7 ([3]; 50 wt %): 97.5% | Purity at Day 14 ([3]; 50 wt %): 97.2% | Purity at Day 21 ([3]; 50 wt %): 96.8% | Purity at Day 28 ([3]; 50 wt %): 96.8% | Purity at hr 0 ([3]; 50 wt %): 97.7% | Stability when the concentration is 0.1% or lower [3]: not stable
